Like-named read-outs stand apart in the source and are kept apart here. Values belong to the substance of their own block, whether it stands above or below them. Where no end group is shown, it is not given here.
What was measured:
SNX27 = assay: GFP trap co-immunoprecipitation of GFP-SNX1/SNX2 constructs from HEK-293T, quantitative western blot: SNX27; type: binding; conditions: for SNX27 co-immunoprecipitated (quantitative western blot), mean: Fig. 3F, GFP-tagged SNX1 WT or mutant as bait, HEK-293T, WT set to 100, mean of n = 4; for reduced binding to SNX27: full-length GFP-SNX1 point mutants in HEK293T, versus SNX1 WT
Procedure: (§1) HeLa and HEK-293T cell lines were sourced from ATCC. Authentication was from the ATCC. Cells were grown in DMEM (Sigma-Aldrich) supplemented with 10% (v/v) FCS (Sigma-Aldrich) and penicillin/streptomycin (Gibco, USA) and grown under standard conditions. FuGENE HD (Promega, USA) was used for transient transfection of DNA according to the manufacturer’s instructions. Cycloheximide was used to prevent up-regulation of protein synthesis. In this case, cycloheximide (C7698; Sigma-Aldrich) at 10 μg/ml was added to the cells 48 hours after FuGENE transfection for the indicated time points. For the generation of CRISPR-Cas9 SNX27 knockout HeLa cells, HeLa cells were transfected with pX330 plasmid coding for the gRNA against the gene of interest together with a puromycin resistance–expressing plasmid. Cells were then subjected to puromycin selection for 24 hours. The pooled population of cells was subjected to lysis and western blotting to confirm the knockout. The VPS35 knockout clonal cell line used in this study was characterized previously. For GFP-based immunoprecipitations, HEK293T cells were transfected with GFP constructs using polyethylenimine (Sigma-Aldrich) and expression was allowed for 48 hours.
(§2) For western blotting, cells were lysed in PBS with 1% (v/v) Triton X-100 and protease inhibitor cocktail. The protein concentration was determined with a BCA assay kit (Thermo Fisher Scientific, USA), and equal amounts were resolved on NuPAGE 4% to 12% precast gels (Invitrogen, USA). Blotting was performed onto polyvinylidene fluoride membranes (Immobilon-FL; EMD Millipore, USA) followed by detection using the Odyssey infrared scanning system (LI-COR Biosciences, USA). For GFP-based immunoprecipitations, HEK-293T cells were lysed 48 hours after transfection in immunoprecipitation buffer (50 mM Tris-HCl, 0.5% (v/v) NP-40, and Roche protease inhibitor cocktail) and subjected to GFP trap (ChromoTek, Germany). Immunoblotting was performed using standard procedures. Detection was performed on an Odyssey infrared scanning system (LI-COR Biosciences) using fluorescently labeled secondary antibodies. In using the Odyssey, we routinely performed western blot analysis where a single blot is simultaneously probed with antibodies against 2 proteins of interest (distinct antibody species) followed by visualization with the corresponding secondary antibodies conjugated to distinct spectral dyes.

SNX6 = assay: GFP trap co-immunoprecipitation from HEK-293T, quantitative western blot: SNX6; type: binding; conditions: Fig. 3F, GFP-tagged SNX1 WT or mutant as bait, WT set to 100, mean of n = 4
Procedure: as §1, §2

[1] = system: HeLa cells, endogenous ITGA5; assay: Cycloheximide degradation assay, ITGA5 level; type: cell-based; conditions: for ITGa5 level, 0h: 0h (set to 100)
Procedure: as §1, §2

[2] = system: HeLa cells, endogenous GLUT1; assay: Cycloheximide degradation assay, GLUT1 level; type: cell-based; conditions: for GLUT1 level, 0h: 0h (set to 100)
Procedure: as §1, §2

[3] = system: HeLa cells, EEA1 endosomes; assay: Colocalization of GFP-tagged SNX27 or SNX1 constructs with EEA1 (Pearson); type: cell-based
Procedure: (§3) Cells were fixed in 4% (v/v) PFA for 20 minutes and washed 3 times in PBS and permeabilized with 0.1% (v/v) Triton X-100. For LAMP1 staining, cells were instead permeabilized by submersion in liquid nitrogen for 20 seconds. Fixed cells were blocked in 1% (w/v) BSA and incubated in primary antibody and respective secondary antibody (Alexa Fluor; Thermo Fisher Scientific) in 1% (w/v) BSA.
(§4) Microscopy images were collected with a confocal laser-scanning microscope (SP5 AOBS; Leica Microsystems, Germany) attached to an inverted epifluorescence microscope (DMI6000; […]). A 63× 1.4 NA oil immersion objective (Plan Apochromat BL; Leica Biosystems, Germany) and the standard SP5 system acquisition software and detector were used. Images were captured at room temperature as z stacks with photomultiplier tube detectors with a photocathode made of gallium-arsenide-phosphide (Leica Microsystems) for collecting light emission. Images were captured using Application Suite AF software (version 2.7.3.9723; Leica Microsystems) and then analyzed with the Volocity 6.3 software (PerkinElmer, USA).

[4] = system: HeLa cells, SNX6 endosomes; assay: Colocalization of GFP-tagged SNX27 or SNX1 constructs with SNX6 (Pearson); type: cell-based
Procedure: as §3, §4

[5] = target: T1, full-length mouse SNX27 (mSNX27FL) (Mus musculus, UniProt Q3UHD6); assay: ITC, hSNX1/2 peptides against mSNX27FL; type: binding; conditions: 25°C, 50 mM HEPES pH 7.5, 200 mM NaCl, 5% glycerol, 1 mM β-ME, 800 μM peptide titrated into 20 μM mSNX27FL, single-site fit, mean of at least 2 experiments
T1 construct: DNA encoding full-length mouse SNX27 (mSNX27FL hereafter) was inserted into the pMCSG7 vector; made in house; host or cells: Escherichia coli BL21 CodonPlus (DE3)
Procedure: Human SNX1 and SNX2 peptide sequences were synthesized by Genscript (USA). To obtain the peptide stock solutions at neutral pH, 100 mM Tris-HCl, pH 10.6 was used to dissolve the peptide to a final concentration of 8 mM. The peptides were SNX1_35-51 […], SNX135-51(D45K) […], SNX1_75-92 […], SNX2_16-33 […], SNX2_16-33(DLF/SSS) […], and SNX2_62-82 […].
All microcalorimetry experiments were conducted at 25°C using a PEAQ ITC (Malvern, UK) in 50 mM HEPES (pH 7.5), 200 mM NaCl, 5% glycerol, and 1 mM β-ME (ITC buffer). All proteins were purified by SEC using the same buffer prior to ITC experiments to avoid buffer mismatches. To measure binding of SNX27 to SNX1 proteins, 800 μM of hSNX27FERM was titrated into 20 μM of GST-mSNX1_1-139 or His-SNX1FL. For the binding of SNX1 and SNX2 peptides to SNX27, peptides were diluted 10-fold to 800 μM in ITC buffer peptides and titrated into 20 μM SNX27FL proteins containing the same 1:10 ratio of peptide buffer (100 mM Tris-HCl, pH 10.6). The competitive ITC experiments were carried out by titrating 800 μM SNX1_75-92 peptides into 20 μM proteins with 2-fold molar excess SNX2_16-33 peptide preincubated with SNX27 on ice for an hour. For ITC experiment using SNX1_75-92 against hSNX27 wild-type and single-site mutants, 600 μM SNX1_75-92 peptide was titrated into 20 μM hSNX27 proteins.
The ITC experiments were conducted with 1 injection of 0.4 μL followed by a series of 12 injections of 3.2 μL each with 180-second intervals and a stirring speed of 850 rpm. The heat exchange of interactions was obtained through integrating the observed peaks and background correction by subtracting the heats of dilution. Data were analyzed with Malvern software package by fitting and normalized data to a single-site binding model, yielding the thermodynamic parameters Kd, ΔH, ΔG, and −TΔS for all binding experiments. The stoichiometry was refined initially, and if the value was close to 1, then N was set to exactly 1.0 for calculation. All experiments were performed at least twice to guarantee reproducibility of the data.

[6] = 8h relative to 0h = 100, replicate n1, Fig. 6C
[7] = 8h relative to 0h = 100, replicate n2, Fig. 6C
[8] = 8h relative to 0h = 100, replicate n3, Fig. 6C

Substance: E44K
SNX27 co-immunoprecipitated (quantitative western blot), mean (SNX27; GFP trap): 63.19 | SNX6 co-immunoprecipitated (quantitative western blot), mean (SNX6): 113.2

Substance: E84K
SNX27 co-immunoprecipitated (quantitative western blot), mean (SNX27; GFP trap): 45.59 | SNX6 co-immunoprecipitated (quantitative western blot), mean (SNX6): 104.1

Substance: KO +GFP-SNX1
ITGa5 level, 0h ([1]; replicate n1, Fig. 6C): 100 | ITGa5 level, 0h ([1]; replicate n2, Fig. 6C): 100 | ITGa5 level, 0h ([1]; replicate n3, Fig. 6C): 100 | ITGa5 level, 0h, Mean 1 ([1]; 0h, mean of n = 3, right-hand (unlabelled) statistics block, Fig. 6C): 100 | ITGa5 level, 8h [1, 6]: 98.9429 | ITGa5 level, 8h [1, 7]: 105.348 | ITGa5 level, 8h [1, 8]: 145.221 | GLUT1 level, 0h ([2]; replicate n1, Fig. 6C): 100 | GLUT1 level, 0h ([2]; replicate n2, Fig. 6C): 100 | GLUT1 level, 0h ([2]; replicate n3, Fig. 6C): 100 | GLUT1 level, 0h, Mean 1 ([2]; 0h, mean of n = 3, Fig. 6C): 100 | GLUT1 level, 8h, Mean 2 ([2]; 8h relative to 0h = 100, mean of n = 3, Fig. 6C): 106.2 | GLUT1 level, 8h [2, 6]: 90.4645 | GLUT1 level, 8h [2, 7]: 112.847 | GLUT1 level, 8h [2, 8]: 115.364

Substance: D45K
SNX27 co-immunoprecipitated (quantitative western blot), mean (SNX27; GFP trap): 45.07 | SNX6 co-immunoprecipitated (quantitative western blot), mean (SNX6): 102

Substance: D87K
SNX27 co-immunoprecipitated (quantitative western blot), mean (SNX27; GFP trap): 34.69 | SNX6 co-immunoprecipitated (quantitative western blot), mean (SNX6): 115.6

Substance: GFP-SNX1(D45K): full-length GFP-SNX1 point mutant in the first aDLF motif
reduced binding to SNX27 (SNX27; Fig 3F): around 50%

Substance: I46K
SNX27 co-immunoprecipitated (quantitative western blot), mean (SNX27; GFP trap): 47.55 | SNX6 co-immunoprecipitated (quantitative western blot), mean (SNX6): 90.56

Substance: GFP-SNX1(D45K,D87K): double mutant targeting key residues in both aDLF motifs of SNX1
SNX27 binding, in words (SNX27; Fig 3F, S2B Fig, double aDLF mutants in HEK293T, GFP trap): near undetectable levels

Substance: E42K
SNX27 co-immunoprecipitated (quantitative western blot), mean (SNX27; GFP trap): 52.35 | SNX6 co-immunoprecipitated (quantitative western blot), mean (SNX6): 105.5

Substance: GFP-SNX1: GFP-tagged full-length SNX1
colocalization with EEA1 (SNX1 vs EEA1), mean ([3]; mean of n = 3): 0.4267 | colocalization with EEA1 (SNX1 vs EEA1) ([3]; replicate n1): 0.53 | colocalization with EEA1 (SNX1 vs EEA1) ([3]; replicate n2): 0.34 | colocalization with EEA1 (SNX1 vs EEA1) ([3]; replicate n3): 0.41 | colocalization with SNX6 (SNX1 vs SNX6), mean ([4]; mean of n = 3): 0.6597 | colocalization with SNX6 (SNX1 vs SNX6) ([4]; replicate n1): 0.81 | colocalization with SNX6 (SNX1 vs SNX6) ([4]; replicate n2): 0.506 | colocalization with SNX6 (SNX1 vs SNX6) ([4]; replicate n3): 0.663

Substance: GFP-SNX1(I46K): full-length GFP-SNX1 point mutant in the first aDLF motif
reduced binding to SNX27 (SNX27; Fig 3F): around 50%

Kd ([5]; listed as SNX2(DLF-SSS)): no detectable binding | Kd ([5]; listed as hSNX216-33 (DLF-SSS)): No binding detected
Substance: TDFEDLEDGESSSTSTVS [SNX2_16-33(DLF/SSS), SNX2 16–33 peptide with triple mutation DLF-SSS]

Substance: GFP-SNX1(E42K): full-length GFP-SNX1 point mutant in the first aDLF motif
reduced binding to SNX27 (SNX27; Fig 3F): around 50%

Kd ([5]; read-out: Kd): 33.4 ± 1.89 µM
Substance: EAGDSDTEGEDIFTGAA [SNX1_35-51]

Kd ([5]; read-out: Kd): 22.6 ± 1.89 µM
Substance: TEVVLDDDREDLFAEATEEVS [SNX2_62-82]

Substance: F47K
SNX27 co-immunoprecipitated (quantitative western blot), mean (SNX27; GFP trap): 42.86 | SNX6 co-immunoprecipitated (quantitative western blot), mean (SNX6): 98.51

Substance: EAGDSDTEGEKIFTGAA [SNX1_35-51(D45K), SNX1 35–51 peptide with charge swap mutation D45K]
Kd ([5]; listed as SNX1(D45K)): no detectable binding | Kd ([5]; listed as hSNX135-51 (D45K)): No binding detected

Substance: GFP-SNX1(F47K): full-length GFP-SNX1 point mutant in the first aDLF motif
reduced binding to SNX27 (SNX27; Fig 3F): around 50%

Substance: F89D
SNX27 co-immunoprecipitated (quantitative western blot), mean (SNX27; GFP trap): 41.68 | SNX6 co-immunoprecipitated (quantitative western blot), mean (SNX6): 109.4

Substance: GFP-SNX1(E44K): full-length GFP-SNX1 point mutant in the first aDLF motif
reduced binding to SNX27 (SNX27; Fig 3F): around 50%
